# Test results as given in PubChem BioAssay (NCI).
#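 Method: 48-hour compound exposure of cells in 96-well plates, five concentrations, linear interpolation of endpoints. The concentration for 50% growth inhibition is given as GI50. Definition used: TGI = concentration required for complete inhibition of growth.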
# What was measured:
# Test in all cases: NCI-60 cell line screen, 48 h
# SR leukemia = system: SR leukemia
# SN12C renal = system: SN12C renal
# CAKI-1 renal = system: CAKI-1 renal
# OVCAR-4 ovarian = system: OVCAR-4 ovarian
# MALME-3M melanoma = system: MALME-3M melanoma
# MOLT-4 leukemia = system: MOLT-4 leukemia
# SF-268 CNS = system: SF-268 CNS
# SK-OV-3 ovarian = system: SK-OV-3 ovarian
# T-47D breast = system: T-47D breast
# SF-295 CNS = system: SF-295 CNS
# HCT-15 colon = system: HCT-15 colon
# SNB-19 CNS = system: SNB-19 CNS
# RXF 393 renal = system: RXF 393 renal
# RPMI-8226 leukemia = system: RPMI-8226 leukemia
# HL-60(TB) leukemia = system: HL-60(TB) leukemia
# TK-10 renal = system: TK-10 renal
# UACC-257 melanoma = system: UACC-257 melanoma
# SK-MEL-28 melanoma = system: SK-MEL-28 melanoma
# 786-0 renal = system: 786-0 renal
# NCI-H23 lung = system: NCI-H23 lung
# IGROV1 ovarian = system: IGROV1 ovarian
# A549 NSCLC = system: A549 NSCLC
# UACC-62 melanoma = system: UACC-62 melanoma
# LOX IMVI melanoma = system: LOX IMVI melanoma
# EKVX NSCLC = system: EKVX NSCLC
# COLO 205 colon = system: COLO 205 colon
# SK-MEL-5 melanoma = system: SK-MEL-5 melanoma
# M14 melanoma = system: M14 melanoma
# SW-620 colon = system: SW-620 colon
# NCI-H460 lung = system: NCI-H460 lung
# HOP-92 NSCLC = system: HOP-92 NSCLC
# UO-31 renal = system: UO-31 renal
# ACHN renal = system: ACHN renal
# DU-145 prostate = system: DU-145 prostate
# OVCAR-5 ovarian = system: OVCAR-5 ovarian
# MCF7 breast = system: MCF7 breast
# CCRF-CEM leukemia = system: CCRF-CEM leukemia
# MDA-MB-231 breast = system: MDA-MB-231 breast
# NCI/ADR-RES ovarian = system: NCI/ADR-RES ovarian
# NCI-H522 lung = system: NCI-H522 lung
# SNB-75 CNS = system: SNB-75 CNS
# NCI-H226 lung = system: NCI-H226 lung
# OVCAR-3 ovarian = system: OVCAR-3 ovarian
# BT-549 breast = system: BT-549 breast
# OVCAR-8 ovarian = system: OVCAR-8 ovarian
# A498 renal = system: A498 renal
# K-562 leukemia = system: K-562 leukemia
# SK-MEL-2 melanoma = system: SK-MEL-2 melanoma
# MDA-MB-435 = system: MDA-MB-435
# HCC-2998 colon = system: HCC-2998 colon
# HCT-116 colon = system: HCT-116 colon
# KM12 colon = system: KM12 colon
# U251 CNS = system: U251 CNS
# HS 578T breast = system: HS 578T breast
# HT29 colon = system: HT29 colon
# SF-539 CNS = system: SF-539 CNS
# PC-3 prostate = system: PC-3 prostate
# HOP-62 NSCLC = system: HOP-62 NSCLC
smiles,measurement,setting,value
CCCc1cn2c(/C=N/N=C(N)N)c(-c3c(OC)ccc(OC)c3[N+](=O)[O-])nc2s1,TGI,SR leukemia,4.34 µM
same,TGI,SN12C renal,31.7 µM
same,TGI,CAKI-1 renal,30.6 µM
same,TGI,OVCAR-4 ovarian,66.2 µM
same,TGI,MALME-3M melanoma,30 µM
same,TGI,MOLT-4 leukemia,4.19 µM
same,TGI,SF-268 CNS,47.2 µM
same,TGI,SK-OV-3 ovarian,43.3 µM
same,TGI,T-47D breast,24.3 µM
same,TGI,SF-295 CNS,35.7 µM
same,TGI,HCT-15 colon,37 µM
same,TGI,SNB-19 CNS,49.9 µM
same,TGI,RXF 393 renal,41.2 µM
same,TGI,RPMI-8226 leukemia,8.7 µM
same,TGI,HL-60(TB) leukemia,27.6 µM
same,TGI,TK-10 renal,41 µM
same,TGI,UACC-257 melanoma,28.4 µM
same,TGI,SK-MEL-28 melanoma,19.4 µM
same,TGI,786-0 renal,28.1 µM
same,TGI,NCI-H23 lung,26.1 µM
same,TGI,IGROV1 ovarian,34.8 µM
same,TGI,A549 NSCLC,51.3 µM
same,TGI,UACC-62 melanoma,25.4 µM
same,TGI,LOX IMVI melanoma,9.13 µM
same,TGI,EKVX NSCLC,44.8 µM
same,TGI,COLO 205 colon,6.42 µM
same,TGI,SK-MEL-5 melanoma,32.3 µM
same,TGI,M14 melanoma,21.3 µM
same,TGI,SW-620 colon,32.9 µM
same,TGI,NCI-H460 lung,41.6 µM
same,TGI,HOP-92 NSCLC,47 µM
same,TGI,UO-31 renal,45 µM
same,TGI,ACHN renal,35.6 µM
same,TGI,DU-145 prostate,35.6 µM
same,TGI,OVCAR-5 ovarian,34.5 µM
same,TGI,MCF7 breast,20.8 µM
same,TGI,CCRF-CEM leukemia,8.43 µM
same,TGI,MDA-MB-231 breast,16.2 µM
same,TGI,NCI/ADR-RES ovarian,64.6 µM
same,TGI,NCI-H522 lung,34.2 µM
same,TGI,SNB-75 CNS,> 59.1 µM
same,TGI,NCI-H226 lung,38.3 µM
same,TGI,OVCAR-3 ovarian,18.2 µM
same,TGI,BT-549 breast,35.6 µM
same,TGI,OVCAR-8 ovarian,47.3 µM
same,TGI,A498 renal,44.6 µM
same,TGI,K-562 leukemia,11.5 µM
same,TGI,SK-MEL-2 melanoma,46.5 µM
same,TGI,MDA-MB-435,19.9 µM
same,TGI,HCC-2998 colon,4.59 µM
same,TGI,HCT-116 colon,22.2 µM
same,TGI,KM12 colon,11.6 µM
same,TGI,U251 CNS,18.7 µM
same,TGI,HS 578T breast,41.9 µM
same,TGI,HT29 colon,> 38.5 µM
same,TGI,SF-539 CNS,36.9 µM
same,TGI,PC-3 prostate,26.5 µM
same,TGI,HOP-62 NSCLC,31.1 µM
O=c1oc2ccc(Br)cc2c(=O)n1-c1ccc(Br)cc1F,GI50,SR leukemia,0.712 µM
same,TGI,SR leukemia,6.88 µM
same,GI50,SN12C renal,0.458 µM
same,TGI,SN12C renal,3.62 µM
same,GI50,CAKI-1 renal,0.507 µM
same,TGI,CAKI-1 renal,3.93 µM
same,GI50,OVCAR-4 ovarian,0.539 µM
same,TGI,OVCAR-4 ovarian,> 100 µM
same,GI50,MALME-3M melanoma,0.436 µM
same,TGI,MALME-3M melanoma,2.55 µM
same,GI50,MOLT-4 leukemia,1.31 µM
same,TGI,MOLT-4 leukemia,4.16 µM
same,GI50,SF-268 CNS,0.688 µM
same,TGI,SF-268 CNS,7.1 µM
same,GI50,SK-OV-3 ovarian,0.56 µM
same,TGI,SK-OV-3 ovarian,4.97 µM
same,GI50,T-47D breast,0.341 µM
same,TGI,T-47D breast,3.84 µM
same,GI50,SF-295 CNS,1.49 µM
same,TGI,SF-295 CNS,3.29 µM
same,GI50,HCT-15 colon,0.733 µM
same,TGI,HCT-15 colon,7.02 µM
same,GI50,SNB-19 CNS,0.378 µM
same,TGI,SNB-19 CNS,46.7 µM
same,GI50,RXF 393 renal,0.68 µM
same,TGI,RXF 393 renal,3.73 µM
same,GI50,RPMI-8226 leukemia,0.264 µM
same,TGI,RPMI-8226 leukemia,1.06 µM
same,GI50,HL-60(TB) leukemia,0.538 µM
same,TGI,HL-60(TB) leukemia,2.53 µM
same,GI50,TK-10 renal,2.86 µM
same,TGI,TK-10 renal,12.8 µM
same,GI50,UACC-257 melanoma,0.64 µM
same,TGI,UACC-257 melanoma,3.76 µM
same,GI50,SK-MEL-28 melanoma,0.392 µM
same,TGI,SK-MEL-28 melanoma,1.95 µM
same,GI50,786-0 renal,2.06 µM
same,TGI,786-0 renal,4.91 µM
same,GI50,NCI-H23 lung,0.369 µM
same,TGI,NCI-H23 lung,2.65 µM
same,GI50,IGROV1 ovarian,0.337 µM
same,TGI,IGROV1 ovarian,11.9 µM
same,GI50,A549 NSCLC,2.05 µM
same,TGI,A549 NSCLC,> 35.5 µM
same,GI50,UACC-62 melanoma,0.223 µM
same,TGI,UACC-62 melanoma,0.772 µM
same,GI50,LOX IMVI melanoma,0.469 µM
same,TGI,LOX IMVI melanoma,2.54 µM
same,GI50,EKVX NSCLC,1.51 µM
same,TGI,EKVX NSCLC,8.24 µM
same,GI50,COLO 205 colon,3.72 µM
same,TGI,COLO 205 colon,14 µM
same,GI50,SK-MEL-5 melanoma,0.269 µM
same,TGI,SK-MEL-5 melanoma,0.853 µM
same,GI50,M14 melanoma,0.816 µM
same,TGI,M14 melanoma,3.59 µM
same,GI50,SW-620 colon,1.22 µM
same,TGI,SW-620 colon,11.2 µM
same,GI50,NCI-H460 lung,0.511 µM
same,TGI,NCI-H460 lung,11.1 µM
same,GI50,HOP-92 NSCLC,0.191 µM
same,TGI,HOP-92 NSCLC,0.683 µM
same,GI50,UO-31 renal,0.442 µM
same,TGI,UO-31 renal,2.48 µM
same,GI50,ACHN renal,0.933 µM
same,TGI,ACHN renal,8.46 µM
same,GI50,DU-145 prostate,1.14 µM
same,TGI,DU-145 prostate,21.4 µM
same,GI50,OVCAR-5 ovarian,3.1 µM
same,TGI,OVCAR-5 ovarian,48.1 µM
same,GI50,MCF7 breast,1.07 µM
same,TGI,MCF7 breast,8.17 µM
same,GI50,CCRF-CEM leukemia,1 µM
same,TGI,CCRF-CEM leukemia,4.95 µM
same,GI50,MDA-MB-231 breast,0.551 µM
same,TGI,MDA-MB-231 breast,4.81 µM
same,GI50,NCI/ADR-RES ovarian,0.553 µM
same,TGI,NCI/ADR-RES ovarian,4.33 µM
same,GI50,NCI-H522 lung,0.351 µM
same,TGI,NCI-H522 lung,2.92 µM
same,GI50,SNB-75 CNS,0.289 µM
same,TGI,SNB-75 CNS,2.45 µM
same,GI50,NCI-H226 lung,1.26 µM
same,TGI,NCI-H226 lung,4.72 µM
same,GI50,OVCAR-3 ovarian,0.477 µM
same,TGI,OVCAR-3 ovarian,6.62 µM
same,GI50,BT-549 breast,0.452 µM
same,TGI,BT-549 breast,2.2 µM
same,GI50,OVCAR-8 ovarian,1.22 µM
same,TGI,OVCAR-8 ovarian,9.14 µM
same,GI50,A498 renal,0.245 µM
same,TGI,A498 renal,0.774 µM
same,GI50,K-562 leukemia,0.465 µM
same,TGI,K-562 leukemia,> 100 µM
same,GI50,SK-MEL-2 melanoma,0.371 µM
same,TGI,SK-MEL-2 melanoma,1.88 µM
same,GI50,MDA-MB-435,0.64 µM
same,TGI,MDA-MB-435,8.87 µM
same,GI50,HCC-2998 colon,2.47 µM
same,TGI,HCC-2998 colon,8.04 µM
same,GI50,HCT-116 colon,0.555 µM
same,TGI,HCT-116 colon,2.1 µM
same,GI50,KM12 colon,2.06 µM
same,TGI,KM12 colon,4.93 µM
same,GI50,U251 CNS,0.725 µM
same,TGI,U251 CNS,9.82 µM
same,GI50,HS 578T breast,0.38 µM
same,TGI,HS 578T breast,3.79 µM
same,GI50,HT29 colon,3.09 µM
same,TGI,HT29 colon,12.7 µM
same,GI50,SF-539 CNS,0.501 µM
same,TGI,SF-539 CNS,3.54 µM
same,GI50,PC-3 prostate,0.864 µM
same,TGI,PC-3 prostate,6.77 µM
same,GI50,HOP-62 NSCLC,1.35 µM
same,TGI,HOP-62 NSCLC,4.79 µM
